From the NIST ThermoML archive (doi:10.1016/j.jct.2004.07.024)
± gives the expanded uncertainty stated by the source.

Assay: xn = mol fraction of the nth substance listed
Conditions: 101.33 kPa, Liquid

CCc1ccccc1 [ethylbenzene] + C[S+](C)[O-]
mass density (293.15 K, x1 = 0.0626): 1076.31 ± 0.31 kg/m3
mass density (293.15 K, x1 = 0.1596): 1043.57 ± 0.29 kg/m3
mass density (293.15 K, x1 = 0.2203): 1025.03 ± 0.29 kg/m3
mass density (293.15 K, x1 = 0.2983): 1003.06 ± 0.29 kg/m3
mass density (293.15 K, x1 = 0.3698): 984.55 ± 0.31 kg/m3
mass density (293.15 K, x1 = 0.4623): 962.58 ± 0.35 kg/m3
mass density (293.15 K, x1 = 0.5186): 950.18 ± 0.38 kg/m3
mass density (293.15 K, x1 = 0.5712): 939.18 ± 0.4 kg/m3
mass density (293.15 K, x1 = 0.6285): 927.89 ± 0.42 kg/m3
mass density (293.15 K, x1 = 0.6802): 918.18 ± 0.44 kg/m3
mass density (293.15 K, x1 = 0.7525): 905.36 ± 0.47 kg/m3
mass density (293.15 K, x1 = 0.8102): 895.69 ± 0.49 kg/m3
mass density (293.15 K, x1 = 0.8723): 885.81 ± 0.51 kg/m3
mass density (293.15 K, x1 = 0.9456): 874.79 ± 0.53 kg/m3
mass density (303.15 K, x1 = 0.0669): 1065.53 ± 0.29 kg/m3
mass density (303.15 K, x1 = 0.1456): 1038.79 ± 0.28 kg/m3
mass density (303.15 K, x1 = 0.2569): 1005.2 ± 0.28 kg/m3
mass density (303.15 K, x1 = 0.3203): 988 ± 0.3 kg/m3
mass density (303.15 K, x1 = 0.3956): 969 ± 0.33 kg/m3
mass density (303.15 K, x1 = 0.4569): 954.63 ± 0.36 kg/m3
mass density (303.15 K, x1 = 0.5132): 942.23 ± 0.38 kg/m3
mass density (303.15 K, x1 = 0.5856): 927.28 ± 0.41 kg/m3
mass density (303.15 K, x1 = 0.6277): 919.04 ± 0.42 kg/m3
mass density (303.15 K, x1 = 0.7065): 904.51 ± 0.45 kg/m3
mass density (303.15 K, x1 = 0.7856): 890.93 ± 0.48 kg/m3
mass density (303.15 K, x1 = 0.8359): 882.8 ± 0.5 kg/m3
mass density (303.15 K, x1 = 0.8856): 875.1 ± 0.52 kg/m3
mass density (303.15 K, x1 = 0.9503): 865.51 ± 0.54 kg/m3
mass density (313.15 K, x1 = 0.0624): 1056.77 ± 0.28 kg/m3
mass density (313.15 K, x1 = 0.1459): 1028.39 ± 0.27 kg/m3
mass density (313.15 K, x1 = 0.2201): 1005.62 ± 0.27 kg/m3
mass density (313.15 K, x1 = 0.2692): 991.65 ± 0.28 kg/m3
mass density (313.15 K, x1 = 0.3314): 975.03 ± 0.31 kg/m3
mass density (313.15 K, x1 = 0.3963): 958.87 ± 0.34 kg/m3
mass density (313.15 K, x1 = 0.4456): 947.35 ± 0.36 kg/m3
mass density (313.15 K, x1 = 0.4965): 936.07 ± 0.38 kg/m3
mass density (313.15 K, x1 = 0.5216): 930.71 ± 0.39 kg/m3
mass density (313.15 K, x1 = 0.5986): 915.08 ± 0.42 kg/m3
mass density (313.15 K, x1 = 0.6853): 898.86 ± 0.45 kg/m3
mass density (313.15 K, x1 = 0.7526): 887.13 ± 0.48 kg/m3
mass density (313.15 K, x1 = 0.8418): 872.68 ± 0.51 kg/m3
mass density (313.15 K, x1 = 0.9258): 860.05 ± 0.54 kg/m3
mass density (323.15 K, x1 = 0.0625): 1046.39 ± 0.27 kg/m3
mass density (323.15 K, x1 = 0.1786): 1007.95 ± 0.26 kg/m3
mass density (323.15 K, x1 = 0.2469): 987.84 ± 0.28 kg/m3
mass density (323.15 K, x1 = 0.3095): 970.78 ± 0.3 kg/m3
mass density (323.15 K, x1 = 0.3698): 955.5 ± 0.33 kg/m3
mass density (323.15 K, x1 = 0.4152): 944.61 ± 0.35 kg/m3
mass density (323.15 K, x1 = 0.4723): 931.67 ± 0.38 kg/m3
mass density (323.15 K, x1 = 0.5362): 918.08 ± 0.4 kg/m3
mass density (323.15 K, x1 = 0.6048): 904.45 ± 0.43 kg/m3
mass density (323.15 K, x1 = 0.6604): 894.04 ± 0.45 kg/m3
mass density (323.15 K, x1 = 0.7301): 881.76 ± 0.48 kg/m3
mass density (323.15 K, x1 = 0.7992): 870.36 ± 0.5 kg/m3
mass density (323.15 K, x1 = 0.8683): 859.65 ± 0.52 kg/m3
mass density (323.15 K, x1 = 0.9226): 851.65 ± 0.54 kg/m3
mass density (333.15 K, x1 = 0.066): 1034.83 ± 0.25 kg/m3
mass density (333.15 K, x1 = 0.1159): 1017.74 ± 0.25 kg/m3
mass density (333.15 K, x1 = 0.1896): 994.42 ± 0.25 kg/m3
mass density (333.15 K, x1 = 0.2156): 986.74 ± 0.27 kg/m3
mass density (333.15 K, x1 = 0.2765): 969.61 ± 0.3 kg/m3
mass density (333.15 K, x1 = 0.3286): 955.9 ± 0.32 kg/m3
mass density (333.15 K, x1 = 0.3964): 939.26 ± 0.35 kg/m3
mass density (333.15 K, x1 = 0.4598): 924.75 ± 0.38 kg/m3
mass density (333.15 K, x1 = 0.5349): 908.81 ± 0.41 kg/m3
mass density (333.15 K, x1 = 0.6126): 893.53 ± 0.44 kg/m3
mass density (333.15 K, x1 = 0.6861): 880.14 ± 0.47 kg/m3
mass density (333.15 K, x1 = 0.7698): 865.99 ± 0.5 kg/m3
mass density (333.15 K, x1 = 0.8459): 854.04 ± 0.52 kg/m3
mass density (333.15 K, x1 = 0.9025): 845.66 ± 0.54 kg/m3
mass density (343.15 K, x1 = 0.0599): 1026.68 ± 0.24 kg/m3
mass density (343.15 K, x1 = 0.1569): 994.32 ± 0.24 kg/m3
mass density (343.15 K, x1 = 0.2363): 970.71 ± 0.28 kg/m3
mass density (343.15 K, x1 = 0.3001): 953.33 ± 0.31 kg/m3
mass density (343.15 K, x1 = 0.3895): 931.07 ± 0.36 kg/m3
mass density (343.15 K, x1 = 0.4519): 916.81 ± 0.38 kg/m3
mass density (343.15 K, x1 = 0.5163): 903.06 ± 0.41 kg/m3
mass density (343.15 K, x1 = 0.5698): 892.31 ± 0.43 kg/m3
mass density (343.15 K, x1 = 0.6389): 879.27 ± 0.46 kg/m3
mass density (343.15 K, x1 = 0.6895): 870.27 ± 0.47 kg/m3
mass density (343.15 K, x1 = 0.7558): 859.13 ± 0.5 kg/m3
mass density (343.15 K, x1 = 0.8106): 850.44 ± 0.52 kg/m3
mass density (343.15 K, x1 = 0.8895): 838.64 ± 0.54 kg/m3
mass density (343.15 K, x1 = 0.9502): 830.09 ± 0.56 kg/m3
mass density (353.15 K, x1 = 0.059): 1016.69 ± 0.23 kg/m3
mass density (353.15 K, x1 = 0.1555): 984.6 ± 0.25 kg/m3
mass density (353.15 K, x1 = 0.2236): 964.29 ± 0.29 kg/m3
mass density (353.15 K, x1 = 0.2856): 947.23 ± 0.32 kg/m3
mass density (353.15 K, x1 = 0.3384): 933.66 ± 0.34 kg/m3
mass density (353.15 K, x1 = 0.4089): 916.78 ± 0.37 kg/m3
mass density (353.15 K, x1 = 0.4625): 904.82 ± 0.39 kg/m3
mass density (353.15 K, x1 = 0.5185): 893.03 ± 0.42 kg/m3
mass density (353.15 K, x1 = 0.5665): 883.47 ± 0.44 kg/m3
mass density (353.15 K, x1 = 0.6255): 872.34 ± 0.46 kg/m3
mass density (353.15 K, x1 = 0.6706): 864.28 ± 0.48 kg/m3
mass density (353.15 K, x1 = 0.7556): 850 ± 0.51 kg/m3
mass density (353.15 K, x1 = 0.8326): 838.04 ± 0.53 kg/m3
mass density (353.15 K, x1 = 0.9129): 826.41 ± 0.56 kg/m3
